According to patent US20080280877A1, “Azetidines” (Pfizer Inc, priority 2007, published 2008):
pKi: −log10 of the molar value.

Target: T1, recombinant human EP-2 receptor (Homo sapiens, UniProt P43116)
T1 construct: cell line stably transfected with full length cDNA encoding human Prostaglandin E2 was established; expressed in transfected cells; host or cells: CHO (Chinese hamster ovary) cells, stably transfected
Experiment: in vitro antagonist potency against recombinant human EP-2 receptor in CHO cells (cAMP, Protocol 1)
Type: cell-based
Details: functional Ki by Cheng-Prusoff from IC50; CHO cells stimulated with PGE2 (5 nM); cAMP readout; read-out: EP2 Ki
Text: 1.0 Measurement of in vitro Antagonist Potency (IC50) of Compounds Against Recombinant Human Prostaglandin E2 Receptor in CHO Cells
The prostaglandin E2 (EP-2) receptor is Gs coupled and agonism of the receptor by PGE2 results in activation of intracellular adenylate cyclase enzymes that synthesise the second messenger signalling molecule, adenosine 3′,5′-cyclic monophosphate (cAMP). […] Decreases in cAMP levels following treatment of stimulated recombinant EP-2 cells with potential antagonist compounds were measured and potency (IC50) calculated as follows. A Chinese hamster ovary (CHO) cell line stably transfected with full length cDNA encoding human Prostaglandin E2 was established using standard molecular biology methods. Test compounds were dissolved in dimethyl sulphoxide (DMSO) at 4 mM. 11 point half log unit increment dilution series of test compound were prepared in DMSO then diluted 1 in 40 in a buffer comprised of phosphate buffered saline (PBS) and 0.05% pluronic F-127 surfactant. Freshly cultured cells at 80-90% confluence were harvested and re-suspended in 90% growth media/10% DMSO. The cells were frozen using a planar freezer and stored in frozen aliquots in cryovials in liquid nitrogen until the day of the experiment. A vial of cells was defrosted in a 37° C. water bath for 2 min, then transferred to 10 ml of Dulbecco's Modified Eagle's Medium (DMEM). The cells were then centrifuged for 5 min at 1000 g and the pellet re-suspended at 1,000,000 cells/ml in DMEM. 5,000 cells (5 ul) were added to 5 ul of the compound dilution series in a 384 well assay plate and pre-incubated for 30 min at 37° C. 5 ul of agonist (15 nM PGE2 in PBS to give 5 nM FAC) was added and plates further incubated for 90 min at 37° C. The relative cAMP concentration in each well was then measured using a ? -galactosidase enzyme fragment complementation method purchased in kit form as the Discoverx cAMP II kit from GE Healthcare, UK. […] Sigmoidal curves were fitted to plots of log10 inhibitor concentration vs. percent effect. IC50 estimates were determined as the concentration of test compound giving an effect half way between the bottom and top asymptotes of the sigmoidal dose response curve. Each experiment included an IC50 determination for the literature compound as a standard to track assay consistency and allow fair comparison between values obtained in different experiments. The EC50 of PGE2 is used in combination with the ligand concentration in the assay to determine Ki values for antagonist dose responses using the Cheng-Prusoff equation. Consequently an agonist dose response curve is carried out for each experiment using the same incubation as the antagonist plate.

T1 sequence (P43116 whole entry): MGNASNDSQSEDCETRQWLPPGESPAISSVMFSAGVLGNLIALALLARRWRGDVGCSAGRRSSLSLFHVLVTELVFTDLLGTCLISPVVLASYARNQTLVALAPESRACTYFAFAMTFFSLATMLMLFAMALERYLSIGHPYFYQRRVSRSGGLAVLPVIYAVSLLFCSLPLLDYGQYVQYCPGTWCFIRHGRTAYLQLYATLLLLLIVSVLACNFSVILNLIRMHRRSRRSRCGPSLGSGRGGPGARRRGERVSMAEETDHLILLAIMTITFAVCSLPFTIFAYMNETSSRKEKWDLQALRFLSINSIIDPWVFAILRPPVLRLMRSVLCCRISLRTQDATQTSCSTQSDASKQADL

Row | SMILES | pKi
1 | N#Cc1ccc(-c2ccc(OCC3(C(=O)O)CN(C(=O)c4ccc(F)cc4)C3)cc2)cc1 [Example 6] | 8.64
2 | COc1cccc(C(=O)N2CC(COc3ccc4nc(C)ccc4c3)(C(=O)O)C2)c1 [Example 31] | 6.63
3 | O=C(c1ccc(Cl)cc1)N1CC(COc2ccc(-c3ccc(F)cc3)cc2)(C(=O)O)C1 [Example 2] | 8.96
4 | CCOc1ccccc1C(=O)N1CC(COc2ccc3cc(OC)ccc3c2)(C(=O)O)C1 [Example 18] | 7.71
5 | O=C(c1ccc(F)cc1)N1CC(COc2ccc(-c3ccc(F)cc3)cc2)(C(=O)O)C1 [Example 16] | 8.12
6 | O=C(c1ccc(F)cc1)N1CC(COc2ccc(-c3ncc(Cl)cn3)cc2)(C(=O)O)C1 [Example 9] | 8.18
7 | Cc1ccc2cc(OCC3(C(=O)O)CN(C(=O)c4cccc(Cl)c4)C3)ccc2n1 [Example 26] | 6.90
8 | Cc1ccc2cc(OCC3(C(=O)O)CN(C(=O)c4ccccc4)C3)ccc2n1 [Example 32] | 6.57
9 | COc1ccc2cc(OCC3(C(=O)O)CN(C(=O)c4ccccc4)C3)ccc2c1 [Example 20] | 7.61
10 | Cc1cc(C)c2cc(OCC3(C(=O)O)CN(C(=O)c4ccc(F)cc4)C3)ccc2n1 [Example 24] | 6.99
11 | N#Cc1ccc(-c2ccc(OCC3(C(=O)O)CN(C(=O)c4ccc(Cl)cc4)C3)cc2)cc1 [Example 1, 1-(4-Chlorobenzoyl)-3-{[(4′-cyanobiphenyl-4-yl)oxy]methyl}azetidine-3-carboxylic acid] | 9.05
12 | Cc1ccc2cc(OCC3(C(=O)O)CN(C(=O)c4ccc(F)cc4)C3)ccc2n1 [Example 25] | 6.91
13 | O=C(c1ccc(F)cc1)N1CC(COc2ccc3nc(-c4ccccn4)sc3c2)(C(=O)O)C1 [Example 7] | 8.85
14 | COc1ccc2ccc(OCC3(C(=O)O)CN(C(=O)c4ccc(F)cc4)C3)cc2c1 [Example 29] | 6.71
15 | O=C(c1ccc(F)cc1)N1CC(COc2ccc(-c3ccc(Cl)cn3)cc2)(C(=O)O)C1 [Example 12] | 8.48
16 | O=C(c1ccc(F)cc1)N1CC(COc2ccc(-c3ccccn3)nc2)(C(=O)O)C1 [Example 27] | 6.84
17 | O=C(c1ccc(F)cc1)N1CC(COc2ccc(-c3cc4ccccc4nn3)cc2)(C(=O)O)C1 [Example 8] | 8.64
18 | Cc1ccc2cc(OCC3(C(=O)O)CN(C(=O)c4ccc(Cl)cc4)C3)ccc2n1 [Example 23] | 7.00
19 | O=C(c1ccccc1)N1CC(COc2ccc(-c3ccccc3)cc2)(C(=O)O)C1 [Example 21] | 7.56
20 | O=C(c1ccccc1)N1CC(COc2ccc3ccccc3c2)(C(=O)O)C1 [Example 28] | 6.76
21 | COc1ccc2cc(OCC3(C(=O)O)CN(C(=O)c4ccc(Cl)cc4)C3)ccc2c1 [Example 13] | 8.22
22 | O=C(c1ccc(F)cc1)N1CC(COc2ccc(-c3ccc(Cl)cc3)cc2)(C(=O)O)C1 [Example 10] | 8.51
23 | O=C(c1ccc(Cl)cc1)N1CC(COc2ccc(-c3ccc(Cl)cc3)cc2)(C(=O)O)C1 [Example 4] | 8.80
24 | O=C(c1ccc(F)cc1)N1CC(COc2ccc(-c3ccc4ccccc4n3)cc2)(C(=O)O)C1 [Example 3] | 9.15
25 | O=C(c1ccc(F)cc1)N1CC(COc2cnc(-c3ccc(Cl)cc3)nc2)(C(=O)O)C1 [Example 11] | 7.98
26 | Cc1ccc(-c2ccc(OCC3(C(=O)O)CN(C(=O)c4ccc(F)cc4)C3)cc2)cc1 [Example 15] | 8.15
27 | O=C(c1ccc(F)cc1)N1CC(COc2ccc(-c3ccccn3)cc2)(C(=O)O)C1 [Example 22] | 7.27

Results, then the compound that gave them:

Row | pKi | SMILES
28 | 8.12 | COc1ccc2cc(OCC3(C(=O)O)CN(C(=O)Nc4cccc(Cl)c4)C3)ccc2c1 [Example 64]
29 | 7.65 | O=C(c1ccc(F)cc1)N1CC(COc2ccc(-c3ccccc3Cl)cc2)(C(=O)O)C1 [Example 39, 3-{[(2′-Chlorobiphenyl-4-yl)oxy]methyl}-1-(4-fluorobenzoyl)azetidine-3-carboxylic acid]
30 | 6.48 | CCOC(=O)C1(COc2ccc3cc(OC)ccc3c2)CN(C(=O)c2ccc(F)cc2)C1 [Example 51, Ethyl 1-(4-fluorobenzoyl)-3-{[(6-methoxy-2-naphthyl)oxy]methyl}azetidine-3-carboxylate]
31 | 6.15 | O=C(c1ccccc1)N1CC(COc2cccc(-c3ccccc3)c2)(C(=O)O)C1 [Example 36]
32 | 6.74 | COc1ccc2cc(OCC3(C#N)CN(C(=O)c4ccc(F)cc4)C3)ccc2c1 [Example 52, 1-(4-Fluorobenzoyl)-3-{[(6-methoxy-2-naphthyl)oxy]methyl}azetidine-3-carbonitrile]
33 | 6.94 | O=C(c1ccccc1)N1CC(COc2ccc(-c3ccccc3)cn2)(C(=O)O)C1 [Example 49]
34 | 6.52 | O=C(c1ccc(F)cc1)N1CC(COc2cnc3ccccc3c2)(C(=O)O)C1 [Example 33]
35 | 7.43 | COc1ccc(-c2cnc(OCC3(C(=O)O)CN(C(=O)c4ccccc4)C3)nc2)cc1 [Example 46]
36 | 7.96 | O=C(C1CCC(F)(F)CC1)N1CC(COc2ccc(-c3ccc(Cl)cc3)cc2)(C(=O)O)C1 [Example 54, 3-{[(4′-Chlorobiphenyl-4-yl)oxy]methyl}-1-[(4,4-difluorocyclohexyl)carbonyl]azetidine-3-carboxylic acid]
37 | 6.23 | CCCOc1ccc(OCC2(C(=O)O)CN(C(=O)Nc3cc(C)cc(C)c3)C2)cc1 [Example 71]
38 | 6.22 | CSc1ccc(NC(=O)N2CC(COc3cccc(C)c3C)(C(=O)O)C2)cc1 [Example 68, 3-[(2,3-Dimethylphenoxy)methyl]-1-({[4-(methylthio)phenyl]amino}carbonyl)azetidine-3-carboxylic acid]
39 | 8.28 | O=C(c1ccc(F)cc1)N1CC(COc2ccc(-c3cccc(Cl)c3)cc2)(C(=O)O)C1 [Example 43]
40 | 7.50 | CCCOc1ccc(OCC2(C(=O)O)CN(C(=O)c3ccc(Cl)cc3)C2)cc1 [Example 38]
41 | 7.25 | COc1ccc2cc(OCC3(C(=O)O)CN(C(=O)Nc4ccc(F)cc4)C3)ccc2c1 [Example 65]
42 | 6.21 | O=C(c1ccc(F)cc1)N1CC(COc2ccc(Br)cc2)(C(=O)O)C1 [Example 53, 3-[(4-Bromophenoxy)methyl]-1-(4-fluorobenzoyl)azetidine-3-carboxylic acid]
43 | 8.30 | O=C(c1ccccc1)N1CC(COc2cnc(-c3ccc(Cl)cc3)cn2)(C(=O)O)C1 [Example 42]
44 | 7.91 | COc1ccc(OC(=O)N2CC(COc3ccc4cc(OC)ccc4c3)(C(=O)O)C2)cc1 [Example 62]
45 | 7.30 | COc1ccc2cc(OCC3(C(=O)O)CN(C(=O)Nc4cccc(F)c4)C3)ccc2c1 [Example 63, 1-{[(3-Fluorophenyl)amino]carbonyl}-3-{[(6-methoxy-2-naphthyl)oxy]methyl}azetidine-3-carboxylic acid]
46 | 6.12 | O=C(c1ccc(F)cc1)N1CC(COc2cccc(-c3ccccc3)c2)(C(=O)O)C1 [Example 37]
47 | 8.25 | O=C(c1ccc(F)cc1)N1CC(COc2ccc(-c3ccc(F)cc3F)cc2)(C(=O)O)C1 [Example 44]
48 | 7.25 | O=C(c1ccccc1)N1CC(COc2cnc(-c3ccccc3)cn2)(C(=O)O)C1 [Example 45, 1-Benzoyl-3-{[(5-phenylpyrazin-2-yl)oxy]methyl}azetidine-3-carboxylic acid]
49 | 6.96 | CCCOc1ccc(OCC2(C(=O)O)CN(C(=O)Nc3cccc(Cl)c3Cl)C2)cc1 [Example 67, 1-{[(2,3-Dichlorophenyl)amino]carbonyl}-3-[(4-propoxyphenoxy)methyl]azetidine-3-carboxylic acid]
50 | 6.28 | O=C(c1ccc(Cl)cc1)N1CC(COc2cccc(-c3ccccc3)c2)(C(=O)O)C1 [Example 35]
51 | 6.13 | CSc1ccc(NC(=O)N2CC(COc3ccc(C)c4c3CCC4)(C(=O)O)C2)cc1 [Example 72]
52 | 7.16 | O=C(c1ccc(Cl)cc1)N1CC(COc2ccc(-c3ccccc3)nn2)(C(=O)O)C1 [Example 47]
53 | 7.10 | COc1ccc2nc(OCC3(C(=O)O)CN(C(=O)c4ccccc4)C3)ccc2c1 [Example 48]
54 | 6.47 | CCOc1ccc(C(=O)N2CC(COc3ccc4nc(C)ccc4c3)(C(=O)O)C2)cc1 [Example 34]
55 | 6.25 | CCCc1ccc(OCC2(C(=O)O)CN(C(=O)Nc3ccccc3CC)C2)cc1 [Example 69]
56 | 6.57 | COc1ccc2cc(OCC3(C(=O)O)CN(C(=O)Oc4ccc(F)cc4)C3)ccc2c1 [Example 60, 1-[(4-Fluorophenoxy)carbonyl]-3-{[(6-methoxy-2-naphthyl)oxy]methyl}azetidine-3-carboxylic acid]
